Assay results published in the Kinase Knowledgebase extract (Sharma et al. 2016).
pIC50: −log10 of the molar value.

Biological target: MAPK14 (human) (UniProt Q16539)
Test: Inhibition of In vitro MAPK14 Kinase Activity

MAPK14 (human), sequence (Q16539 whole entry, looked up): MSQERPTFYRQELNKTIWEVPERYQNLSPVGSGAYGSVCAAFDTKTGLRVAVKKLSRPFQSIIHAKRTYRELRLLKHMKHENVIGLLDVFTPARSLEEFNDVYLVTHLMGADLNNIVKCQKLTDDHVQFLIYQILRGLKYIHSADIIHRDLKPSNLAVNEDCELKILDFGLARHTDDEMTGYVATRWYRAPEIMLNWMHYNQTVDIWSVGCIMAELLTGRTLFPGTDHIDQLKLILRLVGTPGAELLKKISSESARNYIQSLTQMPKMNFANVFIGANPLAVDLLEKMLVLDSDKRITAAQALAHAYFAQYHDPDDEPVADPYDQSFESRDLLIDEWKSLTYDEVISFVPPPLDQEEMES

| Structure (SMILES) | pIC50 |
| --- | --- |
| O=c1c(Br)c(OCc2ccc(F)cc2)cnn1-c1c(Cl)cccc1Cl | 4.70 to 7.00 |
| O=c1c(Br)c(OCc2ccc(F)cc2F)cnn1-c1c(Cl)c[n+]([O-])cc1Cl | 4.70 to 7.00 |
| O=c1c(Br)c(NCC2CCCO2)cnn1Cc1ccccc1 (configuration not stated) | < 4.00 |
| CN(C)CCn1ncc(OCCc2ccccc2)c(Br)c1=O | < 4.00 |
| Nc1ccccc1CNc1cnn(-c2c(Cl)cccc2Cl)c(=O)c1Br | 4.70 to 7.00 |
| O=c1[nH]ncc(OCCc2ccccc2)c1Br | < 4.00 |
| O=c1c(Br)c(NCCc2ccccc2F)cnn1-c1c(Cl)cccc1Cl | 4.70 to 7.00 |
| O=c1c(Br)c(OCc2c(F)cc(F)cc2F)cnn1-c1c(Cl)cccc1Cl | 4.70 to 7.00 |
| O=c1c(Br)c(OCCCc2ccccc2)cnn1-c1c(Cl)cccc1Cl | < 4.00 |
| O=c1c(Br)c(OCCc2ccccc2)cnn1Cc1ccccc1 | < 4.00 |
| O=C(O)C(Nc1cnn(Cc2ccccc2)c(=O)c1Br)c1ccccc1 (configuration not stated) | < 4.00 |
| CN(CCc1ccccc1)c1cnn(-c2c(Cl)cccc2Cl)c(=O)c1Br | 4.40 to 4.70 |
| O=c1c(Br)c(N(CCO)CCc2ccccc2)cnn1-c1c(Cl)cccc1Cl | 4.22 to 4.40 |
| C[C@@H](Nc1cnn(-c2c(Cl)cccc2Cl)c(=O)c1Br)[C@@H](O)c1ccccc1 | < 4.00 |
| O=c1c(Br)c(OCCc2ccccc2)cnn1-c1c(Cl)cccc1Cl | 4.70 to 7.00 |
| CN(C)CCCn1ncc(OCc2ccc(F)cc2F)c(Br)c1=O | < 4.00 |
| O=c1c(Br)c(NCc2ccc(F)cc2)cnn1Cc1ccccc1 | 4.10 to 4.22 |
| O=c1c(Br)c(NCC2CCCO2)cnn1-c1c(Cl)cccc1Cl (configuration not stated) | < 4.00 |
| O=c1c(Br)c(OCc2ccc(F)c(F)c2F)cnn1-c1c(Cl)cccc1Cl | 4.70 to 7.00 |
| O=c1c(Br)c(NCc2ccccc2)cnn1-c1c(Cl)cccc1Cl | 4.70 to 7.00 |
| CC(C)Cc1c(OCCc2ccccc2)cnn(-c2c(Cl)cccc2Cl)c1=O | < 4.00 |
| CC(C)c1ccccc1Sc1cnn(Cc2ccccc2)c(=O)c1Br | < 4.00 |
| O=c1c(Br)c(NCC(O)c2ccccc2)cnn1-c1c(Cl)cccc1Cl (configuration not stated) | 4.70 to 7.00 |

| Structure (SMILES) | pIC50 |
| --- | --- |
| O=c1[nH]ncc(OCc2ccc(F)cc2F)c1Br | < 4.00 |
| CN(C)CCCn1ncc(OCCc2ccccc2)c(Br)c1=O | < 4.00 |
| CS(=O)(=O)OCc1ccccc1COc1cnn(-c2c(Cl)cccc2Cl)c(=O)c1Br | 4.70 to 7.00 |
| O=c1c(Br)c(NCc2cccc(Cl)c2)cnn1-c1c(Cl)cccc1Cl | 4.40 to 4.70 |
| O=c1c(Br)c(OCCc2ccccc2)cnn1Cc1ccncc1 | < 4.00 |
| O=c1c(Br)c(OCc2ccc(F)cc2F)cnn1-c1c(Cl)cncc1Cl | 4.70 to 7.00 |
| O=c1c(Br)c(OCc2ccccc2)cnn1-c1c(Cl)cccc1Cl | 4.70 to 7.00 |
| O=c1c(-c2ccccc2)c(OCCc2ccccc2)cnn1-c1c(Cl)cccc1Cl | < 4.00 |
| O=c1c(Br)c(OCc2ccccc2CCl)cnn1-c1c(Cl)cccc1Cl | 4.70 to 7.00 |
| O=c1c(Br)c(O)cnn1-c1c(Cl)cccc1Cl | < 4.00 |
| O=c1c(Br)c(OCc2ccc(F)cc2)cnn1Cc1ccccc1 | < 4.00 |
| O=c1c(Oc2ccccc2)c(OCCc2ccccc2)cnn1-c1c(Cl)cccc1Cl | < 4.00 |
| COc1ccccc1COc1cnn(-c2c(Cl)cccc2Cl)c(=O)c1Br | 4.70 to 7.00 |
| Cc1c(OCCc2ccccc2)cnn(-c2c(Cl)cccc2Cl)c1=O | 4.70 to 7.00 |
| O=c1c(Br)c(OCc2ccc(F)cc2F)cnn1-c1c(Cl)cccc1Cl | 4.70 to 7.00 |
| O=c1c(Br)c(OCc2ccccc2)cnn1Cc1ccccc1 | < 4.00 |
| O=c1c(Br)c(NC(CO)Cc2ccccc2)cnn1-c1c(Cl)cccc1Cl (configuration not stated) | < 4.00 |
| COc1c(OCCc2ccccc2)cnn(-c2c(Cl)cccc2Cl)c1=O | 4.10 to 4.22 |
| O=c1c(Br)c(OCc2ccccc2CO)cnn1-c1c(Cl)cccc1Cl | 4.70 to 7.00 |
| CN(C)CCn1ncc(OCc2ccc(F)cc2F)c(Br)c1=O | < 4.00 |
| O=c1c(Br)c(NCC(CCO)c2ccc(Cl)cc2)cnn1-c1c(Cl)cccc1Cl (configuration not stated) | < 4.00 |
| C[C@@H](Nc1cnn(-c2c(Cl)cccc2Cl)c(=O)c1Br)c1ccccc1 | 4.00 to 4.10 |
| C[C@H](Nc1cnn(-c2c(Cl)cccc2Cl)c(=O)c1Br)c1ccccc1 | 4.70 to 7.00 |

| Structure (SMILES) | pIC50 |
| --- | --- |
| O=c1cc(OCCc2ccccc2)cnn1-c1c(Cl)cccc1Cl | 4.22 to 4.40 |
| NN(Cc1ccccc1)c1cnn(-c2c(Cl)cccc2Cl)c(=O)c1Br | 4.10 to 4.22 |
| O=c1c(Br)c(Nc2ccccc2)cnn1-c1c(Cl)cccc1Cl | < 4.00 |
| O=c1c(Br)c(OCCc2ccccn2)cnn1-c1c(Cl)cccc1Cl | 4.70 to 7.00 |
| O=c1c(Br)c(N[C@@H]2C[C@H]2c2ccccc2)cnn1-c1c(Cl)cccc1Cl | < 4.00 |
| O=c1c(Br)c(OCc2ccc(F)cc2F)cnn1CCO | 4.40 to 4.70 |
| C[C@H](Nc1cnn(-c2c(Cl)cccc2Cl)c(=O)c1Br)[C@H](O)c1ccccc1 | < 4.00 |
| O=C(O)C(Nc1cnn(-c2c(Cl)cccc2Cl)c(=O)c1Br)c1ccccc1 (configuration not stated) | < 4.00 |
| O=c1c(Br)c(Sc2ccc(F)cc2)cnn1-c1c(Cl)cccc1Cl | < 4.00 |
| O=c1c(Br)c(N2CCN(c3ccc(F)cc3)CC2)cnn1-c1c(Cl)cccc1Cl | < 4.00 |
| O=c1c(Br)c(N[C@@H](CO)c2ccccc2)cnn1-c1c(Cl)cccc1Cl | < 4.00 |
| O=c1c(Br)c(N[C@H](CO)c2ccccc2)cnn1-c1c(Cl)cccc1Cl | 4.70 to 7.00 |
| O=C(O)CC(CNc1cnn(-c2c(Cl)cccc2Cl)c(=O)c1Br)c1ccc(Cl)cc1 (configuration not stated) | 4.00 to 4.10 |
| O=c1c(Br)c(NCCc2ccccc2)cnn1-c1c(Cl)cccc1Cl | 4.70 to 7.00 |
| O=c1c(Br)c(OCc2ccc(F)c(F)c2)cnn1-c1c(Cl)cccc1Cl | 4.70 to 7.00 |
| O=c1c(Br)c(OCc2ccc(F)cc2F)cnn1Cc1ccncc1 | 4.70 to 7.00 |
| O=c1c(Br)c(Sc2ccc(F)cc2)cnn1Cc1ccccc1 | < 4.00 |
| O=c1c(Br)c(OCc2ccccc2)cnn1-c1ccccc1 | 4.40 to 4.70 |
| O=c1c(Br)c(OCCc2ccccc2)cnn1CCO | < 4.00 |
| O=c1c(Br)c(NCc2ccc(F)cc2)cnn1-c1c(Cl)cccc1Cl | 4.70 to 7.00 |
| Cc1nc(Cn2ncc(OCc3ccc(F)cc3F)c(Br)c2=O)cs1 | 4.70 to 7.00 |
